Active and inactive are the calls of the source.
Assays:
Type in all cases: functional
[1] = target: Protein kinase C theta type (Homo sapiens, UniProt Q04759); assay: Navigating the Kinome. Panel member name: PRKCQ
[2] = target: Tyrosine-protein kinase JAK2 (Homo sapiens, UniProt O60674);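 note: JAK2 tested as one member of a kinase panel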
[3] = target: 5'-AMP-activated protein kinase catalytic subunit alpha-1 (Homo sapiens, UniProt Q13131)
[4] = target: ALK tyrosine kinase receptor (Homo sapiens, UniProt Q9UM73);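 note: ALK tested as one member of a kinase panel screen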
ALK tyrosine kinase receptor, sequence (Q9UM73 whole entry): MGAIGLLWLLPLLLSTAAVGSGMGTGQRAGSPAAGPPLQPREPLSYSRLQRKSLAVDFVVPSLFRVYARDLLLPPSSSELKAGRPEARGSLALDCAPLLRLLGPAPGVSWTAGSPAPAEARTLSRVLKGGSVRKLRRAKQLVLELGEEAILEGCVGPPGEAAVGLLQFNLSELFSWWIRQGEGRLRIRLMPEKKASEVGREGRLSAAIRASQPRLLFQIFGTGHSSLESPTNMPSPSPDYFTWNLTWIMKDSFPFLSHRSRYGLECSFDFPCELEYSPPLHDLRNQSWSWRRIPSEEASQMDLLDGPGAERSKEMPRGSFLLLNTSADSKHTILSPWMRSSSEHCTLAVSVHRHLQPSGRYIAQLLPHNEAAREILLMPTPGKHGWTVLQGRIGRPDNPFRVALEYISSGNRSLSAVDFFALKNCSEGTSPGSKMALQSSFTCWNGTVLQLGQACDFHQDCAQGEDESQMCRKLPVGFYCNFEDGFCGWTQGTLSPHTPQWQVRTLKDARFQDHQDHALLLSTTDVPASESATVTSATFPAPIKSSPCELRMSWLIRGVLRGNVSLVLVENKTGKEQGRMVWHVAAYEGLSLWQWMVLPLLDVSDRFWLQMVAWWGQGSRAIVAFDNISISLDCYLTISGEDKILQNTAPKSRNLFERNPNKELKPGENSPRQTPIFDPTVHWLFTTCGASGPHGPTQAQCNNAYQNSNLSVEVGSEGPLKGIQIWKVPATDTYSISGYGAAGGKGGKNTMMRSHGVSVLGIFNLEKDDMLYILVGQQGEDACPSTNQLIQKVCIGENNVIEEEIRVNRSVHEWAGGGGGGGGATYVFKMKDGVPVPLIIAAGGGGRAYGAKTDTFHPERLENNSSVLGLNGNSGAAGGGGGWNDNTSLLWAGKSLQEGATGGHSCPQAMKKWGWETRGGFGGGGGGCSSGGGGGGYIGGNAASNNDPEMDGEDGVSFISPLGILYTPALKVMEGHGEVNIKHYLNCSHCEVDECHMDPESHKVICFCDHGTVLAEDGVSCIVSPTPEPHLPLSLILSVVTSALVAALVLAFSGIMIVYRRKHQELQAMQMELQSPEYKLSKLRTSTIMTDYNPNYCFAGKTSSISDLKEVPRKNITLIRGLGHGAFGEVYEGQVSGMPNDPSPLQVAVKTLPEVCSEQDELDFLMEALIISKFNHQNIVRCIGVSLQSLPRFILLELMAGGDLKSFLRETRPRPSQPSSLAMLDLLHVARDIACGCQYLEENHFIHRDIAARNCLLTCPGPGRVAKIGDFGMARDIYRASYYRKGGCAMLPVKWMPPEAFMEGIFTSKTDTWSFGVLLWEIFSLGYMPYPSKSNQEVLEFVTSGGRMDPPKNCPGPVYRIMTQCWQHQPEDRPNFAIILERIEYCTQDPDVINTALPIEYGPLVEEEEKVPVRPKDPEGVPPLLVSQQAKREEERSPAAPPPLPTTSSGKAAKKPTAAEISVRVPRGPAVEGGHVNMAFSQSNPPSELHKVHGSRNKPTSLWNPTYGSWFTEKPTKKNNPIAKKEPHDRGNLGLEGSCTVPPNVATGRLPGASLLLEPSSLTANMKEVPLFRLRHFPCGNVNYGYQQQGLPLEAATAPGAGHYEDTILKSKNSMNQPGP

[5] = target: T1, Tyrosine-protein kinase receptor TYRO3 (Homo sapiens, UniProt Q06418);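 note: TYRO3 value obtained as one member of a kinome-wide profiling panel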
T1 sequence (Q06418 whole entry): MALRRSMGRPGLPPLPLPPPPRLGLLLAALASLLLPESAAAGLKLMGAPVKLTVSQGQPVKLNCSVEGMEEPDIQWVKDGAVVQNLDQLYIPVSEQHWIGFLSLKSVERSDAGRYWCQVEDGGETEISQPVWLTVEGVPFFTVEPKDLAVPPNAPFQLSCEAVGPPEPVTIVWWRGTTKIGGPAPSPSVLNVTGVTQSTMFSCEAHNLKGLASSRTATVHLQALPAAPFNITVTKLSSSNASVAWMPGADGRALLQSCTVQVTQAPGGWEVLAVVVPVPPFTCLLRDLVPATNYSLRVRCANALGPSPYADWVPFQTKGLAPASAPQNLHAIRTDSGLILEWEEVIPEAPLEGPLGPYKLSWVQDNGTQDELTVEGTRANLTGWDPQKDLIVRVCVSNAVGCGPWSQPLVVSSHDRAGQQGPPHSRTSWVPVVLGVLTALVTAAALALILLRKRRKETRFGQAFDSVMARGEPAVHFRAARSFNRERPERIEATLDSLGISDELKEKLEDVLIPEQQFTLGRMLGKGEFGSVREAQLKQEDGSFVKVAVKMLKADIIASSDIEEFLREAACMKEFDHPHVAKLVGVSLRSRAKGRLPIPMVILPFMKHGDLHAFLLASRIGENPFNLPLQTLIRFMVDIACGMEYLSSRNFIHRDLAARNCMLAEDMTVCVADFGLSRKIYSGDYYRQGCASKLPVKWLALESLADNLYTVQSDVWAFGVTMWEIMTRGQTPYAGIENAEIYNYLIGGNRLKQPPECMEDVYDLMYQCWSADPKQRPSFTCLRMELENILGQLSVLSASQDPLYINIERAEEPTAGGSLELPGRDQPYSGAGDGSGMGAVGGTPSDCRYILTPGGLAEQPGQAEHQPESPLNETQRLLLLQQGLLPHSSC

[6] = target: Serine/threonine-protein kinase pim-1 (Homo sapiens, UniProt P11309)
Serine/threonine-protein kinase pim-1, sequence (P11309 whole entry): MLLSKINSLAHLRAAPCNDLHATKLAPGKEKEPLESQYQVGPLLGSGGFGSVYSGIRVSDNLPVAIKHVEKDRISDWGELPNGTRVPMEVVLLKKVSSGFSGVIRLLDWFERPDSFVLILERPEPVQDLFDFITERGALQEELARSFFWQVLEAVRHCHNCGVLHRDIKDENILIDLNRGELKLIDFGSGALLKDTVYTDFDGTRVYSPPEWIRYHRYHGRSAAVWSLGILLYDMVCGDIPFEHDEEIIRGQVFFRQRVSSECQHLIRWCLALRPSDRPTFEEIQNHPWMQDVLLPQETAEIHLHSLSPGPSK

Aurora kinase A = target: T2, Aurora kinase A (Homo sapiens, UniProt O14965);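 note: value from the Navigating the Kinome kinase panel profiling, panel entry STK6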
T2 sequence (O14965 whole entry): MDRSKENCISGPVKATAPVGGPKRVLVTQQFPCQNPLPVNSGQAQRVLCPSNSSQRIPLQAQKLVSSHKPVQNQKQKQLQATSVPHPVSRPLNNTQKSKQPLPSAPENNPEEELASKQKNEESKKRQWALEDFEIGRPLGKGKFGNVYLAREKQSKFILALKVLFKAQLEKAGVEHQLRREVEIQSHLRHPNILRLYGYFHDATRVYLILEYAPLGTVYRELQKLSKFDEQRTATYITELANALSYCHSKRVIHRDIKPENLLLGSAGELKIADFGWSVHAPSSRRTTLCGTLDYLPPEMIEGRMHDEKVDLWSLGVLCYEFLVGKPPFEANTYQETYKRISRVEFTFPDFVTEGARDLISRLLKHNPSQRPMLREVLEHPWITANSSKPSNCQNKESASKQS

[7] = target: Glycogen synthase kinase-3 alpha (Homo sapiens, UniProt P49840);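 note: GSK3A result taken from a broad kinome-wide kinase panel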
[8] = target: Cyclin-dependent kinase 5 (Homo sapiens, UniProt Q00535);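 note: CDK5 measured as one member of a kinase profiling panel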
Cyclin-dependent kinase 5, sequence (Q00535 whole entry): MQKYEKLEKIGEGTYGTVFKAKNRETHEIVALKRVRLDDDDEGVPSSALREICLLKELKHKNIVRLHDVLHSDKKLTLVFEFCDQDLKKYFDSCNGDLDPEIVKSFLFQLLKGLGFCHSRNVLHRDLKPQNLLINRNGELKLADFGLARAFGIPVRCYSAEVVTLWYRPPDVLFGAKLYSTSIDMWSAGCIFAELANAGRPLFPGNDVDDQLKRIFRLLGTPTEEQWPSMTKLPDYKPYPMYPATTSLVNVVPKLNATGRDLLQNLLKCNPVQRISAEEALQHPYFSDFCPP

[9] = target: Leucine-rich repeat serine/threonine-protein kinase 2 (Homo sapiens, UniProt Q5S007);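 note: value from a broad kinome-wide panel profiling study in which LRRK2 was one of the kinases tested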
Leucine-rich repeat serine/threonine-protein kinase 2, sequence (Q5S007 whole entry): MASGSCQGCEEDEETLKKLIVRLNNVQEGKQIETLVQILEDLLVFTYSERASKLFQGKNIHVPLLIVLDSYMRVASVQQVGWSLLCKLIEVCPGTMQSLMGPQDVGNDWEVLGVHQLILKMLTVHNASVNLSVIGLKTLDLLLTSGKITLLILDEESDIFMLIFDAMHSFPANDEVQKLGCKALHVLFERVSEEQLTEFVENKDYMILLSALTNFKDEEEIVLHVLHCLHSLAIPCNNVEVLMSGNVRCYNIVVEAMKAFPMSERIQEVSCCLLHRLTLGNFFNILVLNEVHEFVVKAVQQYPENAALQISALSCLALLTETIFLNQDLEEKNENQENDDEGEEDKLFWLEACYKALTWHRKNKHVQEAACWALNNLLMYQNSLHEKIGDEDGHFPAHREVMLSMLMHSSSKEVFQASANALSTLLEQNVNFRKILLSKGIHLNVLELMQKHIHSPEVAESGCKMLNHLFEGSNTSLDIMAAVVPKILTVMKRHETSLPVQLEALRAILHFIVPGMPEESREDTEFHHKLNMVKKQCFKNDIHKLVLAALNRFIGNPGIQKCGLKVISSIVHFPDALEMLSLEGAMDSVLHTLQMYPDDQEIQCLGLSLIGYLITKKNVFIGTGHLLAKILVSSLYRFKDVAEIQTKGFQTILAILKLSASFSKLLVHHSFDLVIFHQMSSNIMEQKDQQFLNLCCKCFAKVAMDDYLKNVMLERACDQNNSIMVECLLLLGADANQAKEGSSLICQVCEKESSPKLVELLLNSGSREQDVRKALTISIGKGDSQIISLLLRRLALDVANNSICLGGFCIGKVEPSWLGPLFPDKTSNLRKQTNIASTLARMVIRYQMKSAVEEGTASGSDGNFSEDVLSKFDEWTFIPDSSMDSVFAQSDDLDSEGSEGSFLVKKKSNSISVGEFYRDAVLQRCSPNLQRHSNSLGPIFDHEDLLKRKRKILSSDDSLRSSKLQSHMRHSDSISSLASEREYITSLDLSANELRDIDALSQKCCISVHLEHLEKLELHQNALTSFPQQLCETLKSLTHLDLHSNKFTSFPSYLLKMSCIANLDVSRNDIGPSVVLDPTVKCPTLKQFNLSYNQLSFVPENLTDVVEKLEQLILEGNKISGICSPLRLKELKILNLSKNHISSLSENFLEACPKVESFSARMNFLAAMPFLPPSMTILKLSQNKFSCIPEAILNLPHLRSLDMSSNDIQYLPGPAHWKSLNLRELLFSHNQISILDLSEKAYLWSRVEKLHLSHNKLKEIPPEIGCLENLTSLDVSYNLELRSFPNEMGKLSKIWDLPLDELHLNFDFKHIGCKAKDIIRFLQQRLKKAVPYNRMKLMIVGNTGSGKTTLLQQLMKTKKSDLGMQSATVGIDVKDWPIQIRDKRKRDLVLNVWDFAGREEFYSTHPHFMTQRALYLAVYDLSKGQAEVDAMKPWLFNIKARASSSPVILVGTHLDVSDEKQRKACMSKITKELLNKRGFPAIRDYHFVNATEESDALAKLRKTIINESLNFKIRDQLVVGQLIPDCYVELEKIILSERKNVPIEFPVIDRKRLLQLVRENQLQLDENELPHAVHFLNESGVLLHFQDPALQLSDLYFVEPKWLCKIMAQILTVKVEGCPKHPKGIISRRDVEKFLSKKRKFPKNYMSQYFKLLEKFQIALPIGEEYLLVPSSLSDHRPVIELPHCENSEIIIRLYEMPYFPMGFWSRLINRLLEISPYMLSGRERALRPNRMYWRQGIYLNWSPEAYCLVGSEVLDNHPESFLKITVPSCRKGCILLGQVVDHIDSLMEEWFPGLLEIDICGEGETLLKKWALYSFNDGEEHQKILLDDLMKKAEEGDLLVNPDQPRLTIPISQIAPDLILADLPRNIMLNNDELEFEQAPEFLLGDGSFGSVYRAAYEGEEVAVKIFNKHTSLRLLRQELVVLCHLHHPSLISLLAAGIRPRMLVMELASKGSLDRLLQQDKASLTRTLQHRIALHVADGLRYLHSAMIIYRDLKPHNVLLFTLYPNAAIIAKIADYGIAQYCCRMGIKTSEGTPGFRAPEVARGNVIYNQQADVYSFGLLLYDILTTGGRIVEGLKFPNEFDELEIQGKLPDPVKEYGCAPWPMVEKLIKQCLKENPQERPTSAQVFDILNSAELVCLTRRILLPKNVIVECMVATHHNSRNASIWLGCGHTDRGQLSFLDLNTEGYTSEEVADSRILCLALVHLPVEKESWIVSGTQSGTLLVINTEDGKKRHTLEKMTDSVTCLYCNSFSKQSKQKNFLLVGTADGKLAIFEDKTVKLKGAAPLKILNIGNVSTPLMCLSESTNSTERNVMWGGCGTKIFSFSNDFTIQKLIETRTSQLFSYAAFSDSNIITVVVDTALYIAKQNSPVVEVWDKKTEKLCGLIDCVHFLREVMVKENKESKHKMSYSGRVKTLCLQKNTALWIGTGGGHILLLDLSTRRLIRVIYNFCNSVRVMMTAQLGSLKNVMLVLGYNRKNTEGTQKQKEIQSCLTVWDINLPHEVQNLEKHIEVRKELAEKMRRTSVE

[10] = target: Rho-associated protein kinase 1 (Homo sapiens, UniProt Q13464);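 note: measured within a broad kinome-wide panel profiling many kinases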
[11] = target: Cyclin-dependent kinase 8 (Homo sapiens, UniProt P49336); assay: Navigating the Kinome. Panel member name: CDK8
[12] = target: Vascular endothelial growth factor receptor 1 (Homo sapiens, UniProt P17948);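 note: measured within a kinome-wide profiling panel, FLT1 as the panel member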
[13] = target: BDNF/NT-3 growth factors receptor (Homo sapiens, UniProt Q16620);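 note: NTRK2 measured as one member of a broad kinome-wide kinase profiling panel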
[14] = target: cAMP-dependent protein kinase catalytic subunit alpha (Homo sapiens, UniProt P17612)
[15] = target: Macrophage colony-stimulating factor 1 receptor (Homo sapiens, UniProt P07333);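 note: value comes from the Navigating the Kinome screening panel, CSF1R member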
[16] = target: Dual specificity mitogen-activated protein kinase kinase 2 (Homo sapiens, UniProt P36507); assay: Navigating the Kinome. Panel member name: MAP2K2
[17] = target: Dual specificity tyrosine-phosphorylation-regulated kinase 1A (Homo sapiens, UniProt Q13627);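 note: measured against DYRK1A as one member of a broad kinome profiling panel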
[18] = target: T3, Inhibitor of nuclear factor kappa-B kinase subunit epsilon (Homo sapiens, UniProt Q14164); assay: Navigating the Kinome. Panel member name: IKBKE
T3 sequence (Q14164 whole entry): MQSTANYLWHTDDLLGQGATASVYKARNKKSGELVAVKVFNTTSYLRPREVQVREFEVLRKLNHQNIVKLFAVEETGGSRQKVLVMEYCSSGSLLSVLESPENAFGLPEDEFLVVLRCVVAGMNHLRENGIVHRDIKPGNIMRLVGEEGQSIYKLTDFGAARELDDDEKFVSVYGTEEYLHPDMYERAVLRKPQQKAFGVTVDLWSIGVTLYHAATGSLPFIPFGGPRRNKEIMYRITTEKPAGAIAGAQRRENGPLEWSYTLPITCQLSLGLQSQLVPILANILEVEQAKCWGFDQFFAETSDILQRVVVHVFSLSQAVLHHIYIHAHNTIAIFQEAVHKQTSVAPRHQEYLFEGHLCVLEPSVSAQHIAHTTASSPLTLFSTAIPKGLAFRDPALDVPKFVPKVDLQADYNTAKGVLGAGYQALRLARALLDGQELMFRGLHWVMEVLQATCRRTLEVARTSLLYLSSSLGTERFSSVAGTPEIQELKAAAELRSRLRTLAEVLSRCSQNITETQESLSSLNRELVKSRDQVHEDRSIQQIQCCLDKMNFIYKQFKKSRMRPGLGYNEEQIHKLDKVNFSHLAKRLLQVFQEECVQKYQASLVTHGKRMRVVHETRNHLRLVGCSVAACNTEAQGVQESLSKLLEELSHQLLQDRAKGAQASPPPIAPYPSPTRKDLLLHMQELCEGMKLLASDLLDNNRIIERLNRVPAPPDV

Ki [1] | Ki [2] | Ki [3] | Ki [4] | Ki [5] | Ki [6] | Ki (Aurora kinase A) | Ki [7] | Ki [8] | Ki [9] | Ki [10] | Ki [11] | Ki [12] | Ki [13] | Ki [14] | Ki [15] | Ki [16] | Ki [17] | Ki [18] | Structure (SMILES)
> 2.51 µM (inactive) | > 2.51 µM (inactive) | > 3.16 µM (inactive) | > 6.31 µM (inactive) | > 3.16 µM (inactive) | > 6.31 µM (inactive) | > 1.58 µM (inactive) | > 3.98 µM (inactive) | > 3.16 µM (inactive) | > 2.51 µM (inactive) | 0.0316 µM (active) | > 3.98 µM (inactive) | > 3.98 µM (inactive) | > 3.98 µM (inactive) | > 1.26 µM (inactive) | > 2.51 µM (inactive) | > 3.98 µM (inactive) | > 2 µM (inactive) | > 3.16 µM (inactive) | COc1cccc(C(C)NC(=O)c2sc(-c3ccncc3)nc2C)c1 (configuration not stated)
> 2.51 µM (inactive) | > 2.51 µM (inactive) | > 3.16 µM (inactive) | > 6.31 µM (inactive) | > 3.16 µM (inactive) | > 6.31 µM (inactive) | > 1.58 µM (inactive) | > 3.98 µM (inactive) | 1 µM (active) | > 2.51 µM (inactive) | > 0.0316 µM (inactive) | 0.0158 µM (active) | > 3.98 µM (inactive) | > 3.98 µM (inactive) | 0.316 µM (active) | > 2.51 µM (inactive) | > 3.98 µM (inactive) | 0.0398 µM (active) | > 3.16 µM (inactive) | CCCCC(=O)Nc1cc(-c2c[nH]c3ncccc23)cc(Cl)n1
> 2.51 µM (inactive) | > 2.51 µM (inactive) | > 3.16 µM (inactive) | > 6.31 µM (inactive) | > 3.16 µM (inactive) | > 6.31 µM (inactive) | > 1.58 µM (inactive) | > 3.98 µM (inactive) | > 3.16 µM (inactive) | > 2.51 µM (inactive) | > 3.98 µM (inactive) | > 3.98 µM (inactive) | > 3.98 µM (inactive) | 0.794 µM (active) | 1 µM (active) | > 2 µM (inactive) | > 3.98 µM (inactive) | > 2 µM (inactive) | > 3.16 µM (inactive) | Oc1ccc(-c2nc(-c3ccncc3)c(-c3ccc(F)cc3)[nH]2)cc1 [SB-202190]
